Marks after values point to notes of the source that are not given here.
Tests used:
human ERβ = biological target: T1, human ERβ (Homo sapiens, UniProt Q92731); experiment: Estrogen receptor fluorescence polarisation competitive binding assay, ERβ; conditions: competitive binding, fluorescence polarisation; read-out: ERβ IC50
T1 construct: purchased Invitrogen

HL-60(TB) = experiment: NCI60 in vitro screen, Leukemia; assay type: cell-based, human
MOLT-4 = experiment: NCI60 in vitro screen, Leukemia; assay type: cell-based, human
RPMI-8226 = experiment: NCI60 in vitro screen, Leukemia; assay type: cell-based, human
SR = experiment: NCI60 in vitro screen, Leukemia; assay type: cell-based, human
A549/ATCC = experiment: NCI60 in vitro screen, Non-Small Cell Lung Cancer; assay type: cell-based, human
NCI-H226 = experiment: NCI60 in vitro screen, Non-Small Cell Lung Cancer; assay type: cell-based, human
NCI-H23 = experiment: NCI60 in vitro screen, Non-Small Cell Lung Cancer; assay type: cell-based, human
NCI-H460 = experiment: NCI60 in vitro screen, Non-Small Cell Lung Cancer; assay type: cell-based, human
NCI-H552 = experiment: NCI60 in vitro screen, Non-Small Cell Lung Cancer; assay type: cell-based, human
COLO 205 = experiment: NCI60 in vitro screen, Colon Cancer; assay type: cell-based, human
HCT-116 = experiment: NCI60 in vitro screen, Colon Cancer; assay type: cell-based, human
KM12 = experiment: NCI60 in vitro screen, Colon Cancer; assay type: cell-based, human
SW-620 = experiment: NCI60 in vitro screen, Colon Cancer; assay type: cell-based, human
SF-268 = experiment: NCI60 in vitro screen, CNS Cancer; assay type: cell-based, human
SNB-19 = experiment: NCI60 in vitro screen, CNS Cancer; assay type: cell-based, human
U251 = experiment: NCI60 in vitro screen, CNS Cancer; assay type: cell-based, human
PC-3 = experiment: NCI60 in vitro screen, Prostate cancer; assay type: cell-based, human
DU-145 = experiment: NCI60 in vitro screen, Prostate cancer; assay type: cell-based, human
LOX IMV1 = experiment: NCI60 in vitro screen, Melanoma; assay type: cell-based, human
MALME-3M = experiment: NCI60 in vitro screen, Melanoma; assay type: cell-based, human
M14 = experiment: NCI60 in vitro screen, Melanoma; assay type: cell-based, human
SK-MEL-2 = experiment: NCI60 in vitro screen, Melanoma; assay type: cell-based, human
UACC-257 = experiment: NCI60 in vitro screen, Melanoma; assay type: cell-based, human
UACC-62 = experiment: NCI60 in vitro screen, Melanoma; assay type: cell-based, human
OVCAR-4 = experiment: NCI60 in vitro screen, Ovarian cancer; assay type: cell-based, human
OVCAR-5 = experiment: NCI60 in vitro screen, Ovarian cancer; assay type: cell-based, human
OVCAR-8 = experiment: NCI60 in vitro screen, Ovarian cancer; assay type: cell-based, human
ACHN = experiment: NCI60 in vitro screen, Renal cancer; assay type: cell-based, human
CAKI-1 = experiment: NCI60 in vitro screen, Renal cancer; assay type: cell-based, human
SN12C = experiment: NCI60 in vitro screen, Renal cancer; assay type: cell-based, human
TK-10 = experiment: NCI60 in vitro screen, Renal cancer; assay type: cell-based, human
UO-31 = experiment: NCI60 in vitro screen, Renal cancer; assay type: cell-based, human
MDA-MB-231/ATCC = experiment: NCI60 in vitro screen, Breast cancer; assay type: cell-based, human
HS 578T = experiment: NCI60 in vitro screen, Breast cancer; assay type: cell-based, human
MCF-7 cells = conditions: human
MCF-7 [1] = conditions: MCF-7, 10 μM
MCF-7 [2] = experiment: cells; conditions: Homo sapiens

T1 sequence (Q92731 whole entry): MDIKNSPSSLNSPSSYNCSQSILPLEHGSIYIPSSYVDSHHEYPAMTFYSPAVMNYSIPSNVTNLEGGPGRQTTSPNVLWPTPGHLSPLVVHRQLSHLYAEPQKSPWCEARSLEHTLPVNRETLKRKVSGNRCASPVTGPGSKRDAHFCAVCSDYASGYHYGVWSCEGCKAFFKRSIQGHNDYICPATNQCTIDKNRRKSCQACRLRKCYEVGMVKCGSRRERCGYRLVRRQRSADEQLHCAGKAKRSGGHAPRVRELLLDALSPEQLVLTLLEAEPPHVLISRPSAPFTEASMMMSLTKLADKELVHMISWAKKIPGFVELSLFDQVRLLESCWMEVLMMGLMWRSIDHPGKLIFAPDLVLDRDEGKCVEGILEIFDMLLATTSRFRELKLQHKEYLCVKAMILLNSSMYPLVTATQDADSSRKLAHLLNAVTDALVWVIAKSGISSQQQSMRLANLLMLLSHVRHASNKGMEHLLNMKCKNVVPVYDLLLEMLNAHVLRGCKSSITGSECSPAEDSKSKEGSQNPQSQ

CC/C(=C(\c1ccccc1)c1ccc(OCCN(C)C(=O)CCC(=O)Oc2cc(/C=C\c3cc(OC)c(OC)c(OC)c3)ccc2OC)cc1)c1ccccc1 (mixture of isomers) [Compound 16a, N-{2-[4-((Z)-1,2-Diphenylbut-1-enyl)phenoxy]ethyl}-N-methylsuccinamic acid 2-methoxy-5-[(Z)-2-(3,4,5-trimethoxyphenyl)vinyl]phenyl ester] was tested, and the IC50 (human ERβ) was 22.7 nM, the “Growth % (10^−5 M)” value (HL-60(TB); 10 μM) was 28.19% and the GI50 (HL-60(TB); Homo sapiens) was 14.5 nM. The GI50 (MOLT-4; Homo sapiens, MOLT-4) was 39.8 nM, the “Growth % (10^−5 M)” value (MOLT-4; MOLT-4, 10 μM) was 36.2% and the GI50 (RPMI-8226; Homo sapiens, RPMI-8226) was 27.1 nM. For the same compound, the “Growth % (10^−5 M)” value (RPMI-8226; RPMI-8226, 10 μM) was −18.51 ^e %, the “Growth % (10^−5 M)” value (SR; 10 μM) was 29.68% and the GI50 (SR; Homo sapiens) was 18.9 nM. For the same compound, the “Growth % (10^−5 M)” value (A549/ATCC; 10 μM) was 18.56%, the GI50 (A549/ATCC; Homo sapiens) was 59 nM and the GI50 (NCI-H226; Homo sapiens, NCI-H226) was 47.1 nM. For the same compound, the “Growth % (10^−5 M)” value (NCI-H226; NCI-H226, 10 μM) was 11.59%, the GI50 (NCI-H23; Homo sapiens, NCI-H23) was 45.9 nM and the “Growth % (10^−5 M)” value (NCI-H23; NCI-H23, 10 μM) was 12.25%. The GI50 (NCI-H460; Homo sapiens, NCI-H460) was 29.9 nM, the “Growth % (10^−5 M)” value (NCI-H460; NCI-H460, 10 μM) was −6.77 ^e % and the GI50 (NCI-H552; Homo sapiens, NCI-H552) was 19.7 nM. For the same compound, the “Growth % (10^−5 M)” value (NCI-H552; NCI-H552, 10 μM) was −30.85 ^e %, the “Growth % (10^−5 M)” value (COLO 205; COLO 205, 10 μM) was −55 ^e % and the GI50 (COLO 205; Homo sapiens, COLO 205) was 378 nM. For the same compound, the “Growth % (10^−5 M)” value (HCT-116; HCT-116, 10 μM) was 1.61%, the GI50 (HCT-116; Homo sapiens, HCT-116) was 15.6 nM and the inhibition at 10 µM (HCT-116; Homo sapiens, HCT-116, one-dose, 10 μM, read-out: growth inhibition) was 98%. The GI50 (KM12; Homo sapiens, KM12) was under 10 nM, the “Growth % (10^−5 M)” value (KM12; KM12, 10 μM) was −37 ^e % and the GI50 (SW-620; Homo sapiens, SW-620) was under 10 nM. For the same compound, the “Growth % (10^−5 M)” value (SW-620; SW-620, 10 μM) was 28.17%, the GI50 (SF-268; Homo sapiens, SF-268) was 25.3 nM and the “Growth % (10^−5 M)” value (SF-268; SF-268, 10 μM) was 18.51%. For the same compound, the GI50 (SNB-19; Homo sapiens, SNB-19) was 36.5 nM, the “Growth % (10^−5 M)” value (SNB-19; SNB-19, 10 μM) was 28.03% and the GI50 (U251; Homo sapiens, U-251, U251) was 31.6 nM. For the same compound, the inhibition at 10 µM (U251; Homo sapiens, U-251, U251, one-dose, 10 μM, read-out: growth inhibition) was 90%, the “Growth % (10^−5 M)” value (U251; U251, 10 μM) was 10.13% and the GI50 (PC-3; Homo sapiens, PC-3) was 12 nM. For the same compound, the “Growth % (10^−5 M)” value (PC-3; PC-3, 10 μM) was 19.1%, the “Growth % (10^−5 M)” value (DU-145; DU-145, 10 μM) was −36.33 ^e % and the GI50 (DU-145; Homo sapiens, DU-145) was 12.5 nM. The GI50 (LOX IMV1; Homo sapiens, LOX IMV1) was 35.8 nM, the “Growth % (10^−5 M)” value (LOX IMV1; LOX IMV1, 10 μM) was 28.97% and the GI50 (MALME-3M; Homo sapiens, Malme-3M) was over 10000 nM. The “Growth % (10^−5 M)” value (MALME-3M; MALME-3M, 10 μM) was 74.86%, the GI50 (M14; Homo sapiens, M14) was 12.9 nM and the inhibition at 10 µM (M14; Homo sapiens, M14, one-dose, 10 μM, read-out: growth inhibition) was 99%. The “Growth % (10^−5 M)” value (M14; M14, 10 μM) was 1.39%, the GI50 (SK-MEL-2; Homo sapiens, SK-MEL-2) was over 10000 nM and the “Growth % (10^−5 M)” value (SK-MEL-2; SK-MEL-2, 10 μM) was 37.97%. For the same compound, the GI50 (UACC-257; Homo sapiens, UACC-257) was over 10000 nM, the “Growth % (10^−5 M)” value (UACC-257; UACC-257, 10 μM) was 48.73% and the GI50 (UACC-62; Homo sapiens, UACC-62) was 18.1 nM. For the same compound, the “Growth % (10^−5 M)” value (UACC-62; UACC-62, 10 μM) was 25.13%, the GI50 (OVCAR-4; Homo sapiens, OVCAR-4) was 62.8 nM and the “Growth % (10^−5 M)” value (OVCAR-4; OVCAR-4, 10 μM) was 30.96%. For the same compound, the GI50 (OVCAR-5; Homo sapiens, OVCAR-5) was 89.4 nM, the “Growth % (10^−5 M)” value (OVCAR-5; OVCAR-5, 10 μM) was 34.65% and the GI50 (OVCAR-8; Homo sapiens, OVCAR-8) was 49 nM. The “Growth % (10^−5 M)” value (OVCAR-8; OVCAR-8, 10 μM) was 12.79%, the “Growth % (10^−5 M)” value (ACHN; 10 μM) was 22.73% and the GI50 (ACHN; Homo sapiens) was 45.5 nM. For the same compound, the “Growth % (10^−5 M)” value (CAKI-1; CAKI-1, 10 μM) was 23.4%, the GI50 (CAKI-1; Homo sapiens, CAKI-1) was 30.7 nM and the “Growth % (10^−5 M)” value (SN12C; 10 μM) was 31.84%. For the same compound, the GI50 (SN12C; Homo sapiens) was 57.6 nM, the GI50 (TK-10; Homo sapiens, TK-10) was 589 nM and the “Growth % (10^−5 M)” value (TK-10; TK-10, 10 μM) was 33.77%. The GI50 (UO-31; Homo sapiens, UO-31) was 88.4 nM, the “Growth % (10^−5 M)” value (UO-31; UO-31, 10 μM) was 31.52% and the “Growth % (10^−5 M)” value (MDA-MB-231/ATCC; 10 μM) was 23.19%. The GI50 (MDA-MB-231/ATCC; Homo sapiens) was 28.6 nM, the “Growth % (10^−5 M)” value (HS 578T; 10 μM) was 17.57% and the GI50 (HS 578T; Homo sapiens) was 25.5 nM. The “cytotoxicity (LDH assay)” value (MCF-7 cells) was 13.2%, the “Growth % (10^−5 M)” value (MCF-7 [1]) was 10.06% and the GI50 (MCF-7 [2]; MCF7) was 34.5 nM. It also gave an IC50 (MCF-7 [2]; MCF7, read-out: GI50 (IC50)) of 36 nM and an inhibition at 10 µM (MCF-7 [2]; MCF7, read-out: growth inhibition) of 90%.

From PMC6151695, “Novel Selective Estrogen Receptor Ligand Conjugates Incorporating Endoxifen-Combretastatin and Cyclofenil-Combretastatin Hybrid Scaffolds: Synthesis and Biochemical Evaluation” (Molecules : A Journal of Synthetic Chemistry and Natural …, 2017)
